According to ChEMBL document CHEMBL2407029 (Bioorg Med Chem Lett, 2013):
Square brackets hold non-standard residues; d marks the D form. Peptide text beside a SMILES is read from it. Phe(4-I) = N[C@@H](Cc1ccc(I)cc1)C(=O)O

Experiments:
[1] = Displacement of [131I]-[D-Ala2,4'-I-Phe8]alpha-Neoendorphin from opioid receptor in CD-1 mouse brain after 90 mins by competitive binding assay; assay type: tissue-based
[2] = target: Kappa-type opioid receptor (Homo sapiens, UniProt P41145); assay: Displacement of [125]IBNtxA from KOR-1 (unknown origin) transfected in CHO cells after 90 mins by competitive binding assay; assay type: cell-based
[3] = target: Delta-type opioid receptor (Homo sapiens, UniProt P41143); assay: Displacement of [125]IBNtxA from DOR-1 (unknown origin) transfected in CHO cells after 90 mins by competitive binding assay; assay type: cell-based
[4] = species on record: Mus musculus; assay: (§1) Binding affinity to opioid receptor in CD-1 mouse brain after 90 mins; details: tested as the 131I-labelled form
[5] = as §1; details: read-out: Kd(app)

SMILES | Ki [1] [nM] | also measured
C[C@@H](NC(=O)[C@@H](N)Cc1ccc(O)cc1)C(=O)NCC(=O)N(C)[C@@H](Cc1ccccc1)C(=O)NCCO [DAMGO] | 1.4 | 
CC(C)C[C@H](NC(=O)[C@H](Cc1ccccc1)NC(=O)CNC(=O)CNC(=O)[C@@H](N)Cc1ccc(O)cc1)C(=O)N[C@@H](CCCNC(=N)N)C(=O)N[C@@H](CCCNC(=N)N)C(=O)N[C@@H](CCC(N)=O)C(=O)N[C@@H](Cc1ccccc1)C(=O)N[C@@H](CCCCN)C(=O)N[C@H](C(=O)N[C@H](C(=O)N[C@H](C(=O)O)[C@@H](C)O)C(C)C)C(C)C [DYNORPHIN B] | 6.7 | 
CC[C@H](C)[C@H](NC(=O)[C@H](CCCNC(=N)N)NC(=O)[C@H](CCCNC(=N)N)NC(=O)[C@H](CC(C)C)NC(=O)[C@H](Cc1ccccc1)NC(=O)CNC(=O)CNC(=O)[C@@H](N)Cc1ccc(O)cc1)C(=O)N[C@@H](CCCNC(=N)N)C(=O)N1CCC[C@H]1C(=O)N[C@@H](CCCCN)C(=O)N[C@@H](CC(C)C)C(=O)N[C@@H](CCCCN)C(=O)N[C@@H](Cc1c[nH]c2ccccc12)C(=O)N[C@@H](CC(=O)O)C(=O)N[C@@H](CC(N)=O)C(=O)N[C@@H](CCC(N)=O)C(=O)O [DYNORPHIN A (1-17)] | 5.5 | 
CC(C)C[C@H](NC(=O)[C@H](Cc1ccccc1)NC(=O)CNC(=O)CNC(=O)[C@@H](N)Cc1ccc(O)cc1)C(=O)N[C@@H](CCCNC(=N)N)C(=O)N[C@@H](CCCCN)C(=O)N[C@@H](Cc1ccc(O)cc1)C(=O)N1CCC[C@H]1C(=O)N[C@@H](CCCCN)C(=O)O (H-YGGFLRKYPK-OH) | 9.8 | Ki [2]: 2.4 nM; Ki [3]: 1.7 nM
CC(C)C[C@H](NC(=O)[C@H](Cc1ccccc1)NC(=O)CNC(=O)[C@@H](C)NC(=O)[C@@H](N)Cc1ccc(O)cc1)C(=O)N[C@@H](CCCNC(=N)N)C(=O)N[C@@H](CCCCN)C(=O)N[C@@H](Cc1ccc(I)cc1)C(=O)N1CCC[C@H]1C(=O)N[C@@H](CCCCN)C(=O)O (H-Y[dA]GFLRK[Phe(4-I)]PK-OH) |  | Bmax [4]: 465 fmol/mg
CC(C)C[C@H](NC(=O)[C@H](Cc1ccccc1)NC(=O)CNC(=O)[C@@H](C)NC(=O)[C@@H](N)Cc1ccc(O)cc1)C(=O)N[C@@H](CCCNC(=N)N)C(=O)N[C@@H](CCCCN)C(=O)N[C@@H](Cc1ccc([131I])cc1)C(=O)N1CCC[C@H]1C(=O)N[C@@H](CCCCN)C(=O)O |  | Kd [5]: 11 nM
